From patent US9982265B2, “Inhibition of Bruton's tyrosine kinase (Btk) in the lung to treat severe lung inflammation and lung injury” (BOARD OF REGENTS, THE UNIVERSITY OF TEXAS SYSTEM, priority 2014, dated 2018)

How the values were obtained:
alveolar neutrophils = assay: Uptake of alveolar neutrophils by mouse spleen macrophages (co-culture 1 h); assay type: cell-based; conditions: neutrophils from treated LPS/IC ALI mice versus ALI; FIG. 5B
Procedure: Neutrophil Apoptosis/Uptake: Purified alveolar neutrophils were evaluated for the presence of cleaved caspase 3 as done routinely in our laboratory (13). Cells mounted on cytospins were incubated with anti-mouse cleaved caspase 3 antibody (Cell Signaling Technology, Danvers, Mass.), followed by dye-conjugated secondary antibody. Fluorescence intensity of cleaved caspase 3 was analyzed as described above. In addition, alveolar neutrophils were co-cultured with mouse spleen macrophages for 1 h (43, 44), and percentage of phagocytosed neutrophils was calculated. In separate sets of experiments bone marrow neutrophils (BMPMNs) were purified according to the previously published protocol (54) and cultivated for 24 h to induce spontaneous apoptosis. Some cells were cultured in the presence of LPS and anti-KC:KC immune complexes. In other experiments, BMPMNs were treated with siRNA specific for Btk (Santa Cruz Biotechnology) conjugated to F(ab′)2 fragments of the Ly6G1A8 antibody. Similarly conjugated control siRNA (Santa Cruz Biotechnology) or F(ab′)2 fragments of the Ly6G1A8 alone served as controls.
In other experiments, purified alveolar neutrophils were co-cultured with mouse spleen macrophages for 1 h, and the percentage of phagocytosed neutrophils was assessed by counting numbers of neutrophils present inside macrophages. […]

thrombomodulin (TM) = assay: Thrombomodulin in BAL fluid by Western blot, LPS/IC induced ALI; assay type: in vivo, mice; conditions: FIG. 6D
Procedure: Western Blotting: BAL fluids were subjected to SDS PAGE electrophoresis, transferred onto PVDF membrane and further evaluated for the presence of thrombomodulin using anti-mouse TM antibody (M-17; Santa Cruz Biotechnology, Santa Cruz, Calif.). In some experiments cell culture media or cell lysates were analyzed for level of MPO or actin (EMD Millipore, Billerica, Mass. and Santa Cruz Biotechnology, respectively) or phospho-p40 phox (Santa Cruz Biotechnology).
Endothelial damage in this ALI model was also examined by assessing the release of thrombomodulin (TM), which is a membrane protein expressed on the capillary endothelium (40, 52). A Western Blot analysis of BAL fluid samples was performed (FIG. 6D) from control mice (Saline), mice with LPS/IC induced ALI, and mice treated with siRNA specific for Btk, or MMP-9, or control siRNA. The bar graph in FIG. 6D includes data from 3 experiments. For each repetition a fold over a corresponding control was calculated. Means of all repetitions as well as associated standard deviations were graphed. […] The same was true for mice that received nonspecific control siRNA (p<0.05).

## Cont siRNA: control siRNA #8 (SEQ ID NO:26/27) conjugated to F(ab′)2 fragments of Ly6G1A8 (chain 1 UUCCUCUCCACGCGCAGUACAUUUA; chain 2 AAGGAGAGGUGCGCGUCAUGUAAAU; conjugated to antibody F(ab')2 fragment, attachment not given here; one strand is listed 3' to 5')
Alveolar neutrophils
  uptake (phagocytosis) of apoptotic alveolar neutrophils by macrophages: no effect
Thrombomodulin (TM)
  levels of thrombomodulin (TM) in BAL fluid: significantly increased levels
